Laboratory results published in doi:10.1101/2021.09.30.462449v1 (biorxiv, 2021).

Tests used:
Assay in all cases: biochemical
Conditions in all cases: read-out: % inhibition mean (Lanthascreen)
AAK1 = AAK1 (Homo sapiens, UniProt Q2M2I8)
ABL1 H396P = ABL1 H396P (Homo sapiens, UniProt P00519, H396P)
ABL1 M351T = ABL1 M351T (Homo sapiens, UniProt P00519, M351T)
ACVR1 (ALK2) = ACVR1 (ALK2) (Homo sapiens, UniProt Q04771)
ACVR2B = ACVR2B (Homo sapiens, UniProt Q13705)
ALK F1174L = ALK F1174L (Homo sapiens, UniProt Q9UM73, F1174L)
ALK F1174L, sequence (Q9UM73 whole entry F1174L): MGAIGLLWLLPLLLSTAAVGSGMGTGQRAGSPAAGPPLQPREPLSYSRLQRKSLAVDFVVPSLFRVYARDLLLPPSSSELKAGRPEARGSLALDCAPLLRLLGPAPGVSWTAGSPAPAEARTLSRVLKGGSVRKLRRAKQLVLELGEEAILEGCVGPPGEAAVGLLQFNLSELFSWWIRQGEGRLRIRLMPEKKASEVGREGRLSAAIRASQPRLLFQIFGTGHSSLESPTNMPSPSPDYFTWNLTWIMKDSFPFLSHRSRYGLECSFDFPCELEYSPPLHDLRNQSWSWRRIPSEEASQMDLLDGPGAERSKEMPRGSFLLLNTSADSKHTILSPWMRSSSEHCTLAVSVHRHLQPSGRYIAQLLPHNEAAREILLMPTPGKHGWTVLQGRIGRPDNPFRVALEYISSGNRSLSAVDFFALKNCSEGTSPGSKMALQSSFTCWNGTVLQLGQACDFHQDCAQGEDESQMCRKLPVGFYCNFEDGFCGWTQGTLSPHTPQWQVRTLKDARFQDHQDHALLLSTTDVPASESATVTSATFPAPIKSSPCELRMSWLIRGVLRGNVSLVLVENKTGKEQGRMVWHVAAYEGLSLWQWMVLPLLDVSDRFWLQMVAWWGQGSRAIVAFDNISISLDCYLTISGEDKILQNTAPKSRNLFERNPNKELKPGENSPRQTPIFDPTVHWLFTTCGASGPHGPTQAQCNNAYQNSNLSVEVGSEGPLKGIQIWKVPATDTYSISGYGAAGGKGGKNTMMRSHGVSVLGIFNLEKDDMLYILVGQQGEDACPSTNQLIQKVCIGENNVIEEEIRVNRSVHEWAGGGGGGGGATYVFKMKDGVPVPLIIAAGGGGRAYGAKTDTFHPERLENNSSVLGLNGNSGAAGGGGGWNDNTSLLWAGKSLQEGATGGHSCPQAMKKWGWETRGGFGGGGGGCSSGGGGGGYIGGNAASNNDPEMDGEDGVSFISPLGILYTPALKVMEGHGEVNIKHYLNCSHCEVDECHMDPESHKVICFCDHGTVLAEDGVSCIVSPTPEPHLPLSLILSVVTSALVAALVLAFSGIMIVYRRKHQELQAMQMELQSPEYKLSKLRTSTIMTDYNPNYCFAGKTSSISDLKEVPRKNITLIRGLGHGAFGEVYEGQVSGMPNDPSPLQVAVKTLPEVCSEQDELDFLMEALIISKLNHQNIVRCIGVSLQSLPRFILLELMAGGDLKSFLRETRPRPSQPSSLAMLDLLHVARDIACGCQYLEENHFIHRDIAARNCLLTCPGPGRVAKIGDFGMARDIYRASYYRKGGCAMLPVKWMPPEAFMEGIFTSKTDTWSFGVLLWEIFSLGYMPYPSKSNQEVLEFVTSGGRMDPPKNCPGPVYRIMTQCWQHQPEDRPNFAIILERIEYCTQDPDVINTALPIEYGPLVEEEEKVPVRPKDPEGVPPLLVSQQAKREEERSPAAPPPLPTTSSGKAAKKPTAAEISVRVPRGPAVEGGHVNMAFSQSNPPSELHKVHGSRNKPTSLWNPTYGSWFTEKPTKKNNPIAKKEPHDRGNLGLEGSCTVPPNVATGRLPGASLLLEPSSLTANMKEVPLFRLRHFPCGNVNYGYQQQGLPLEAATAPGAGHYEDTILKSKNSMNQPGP

ALK L1196M = ALK L1196M (Homo sapiens, UniProt Q9UM73, L1196M)
ALK R1275Q = ALK R1275Q (Homo sapiens, UniProt Q9UM73, R1275Q)
AMPK (A1/B1/G2) = AMPK (A1/B1/G2) (Homo sapiens, UniProt Q13131)
ANKK1 = ANKK1 (Homo sapiens, UniProt Q8NFD2)
CDK2/cyclin A1 = CDK2/cyclin A1 (Homo sapiens, UniProt P24941)
CDK5 (Inactive) = CDK5 (Inactive) (Homo sapiens, UniProt Q00535)
DYRK2 = DYRK2 (Homo sapiens, UniProt Q92630)
DYRK2, sequence (Q92630 whole entry): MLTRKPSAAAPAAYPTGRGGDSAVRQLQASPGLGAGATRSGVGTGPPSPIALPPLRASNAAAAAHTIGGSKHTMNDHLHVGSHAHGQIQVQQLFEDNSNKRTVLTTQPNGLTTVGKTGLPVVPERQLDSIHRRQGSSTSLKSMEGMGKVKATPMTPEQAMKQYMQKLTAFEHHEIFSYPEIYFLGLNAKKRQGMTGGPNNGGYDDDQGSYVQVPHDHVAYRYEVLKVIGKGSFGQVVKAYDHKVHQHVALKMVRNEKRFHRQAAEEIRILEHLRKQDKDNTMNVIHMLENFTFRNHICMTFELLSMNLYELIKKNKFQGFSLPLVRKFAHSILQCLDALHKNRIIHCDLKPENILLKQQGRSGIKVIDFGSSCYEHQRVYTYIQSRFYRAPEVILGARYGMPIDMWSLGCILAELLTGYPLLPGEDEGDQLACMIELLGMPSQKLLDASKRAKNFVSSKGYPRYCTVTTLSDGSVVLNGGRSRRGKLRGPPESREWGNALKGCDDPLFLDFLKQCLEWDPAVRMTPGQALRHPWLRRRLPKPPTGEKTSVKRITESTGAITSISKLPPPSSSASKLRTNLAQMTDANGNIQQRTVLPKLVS

GAK = GAK (Homo sapiens, UniProt O14976)
KIT A829P = KIT A829P (Homo sapiens, UniProt P10721, A829P)
KIT A829P, sequence (P10721 whole entry A829P): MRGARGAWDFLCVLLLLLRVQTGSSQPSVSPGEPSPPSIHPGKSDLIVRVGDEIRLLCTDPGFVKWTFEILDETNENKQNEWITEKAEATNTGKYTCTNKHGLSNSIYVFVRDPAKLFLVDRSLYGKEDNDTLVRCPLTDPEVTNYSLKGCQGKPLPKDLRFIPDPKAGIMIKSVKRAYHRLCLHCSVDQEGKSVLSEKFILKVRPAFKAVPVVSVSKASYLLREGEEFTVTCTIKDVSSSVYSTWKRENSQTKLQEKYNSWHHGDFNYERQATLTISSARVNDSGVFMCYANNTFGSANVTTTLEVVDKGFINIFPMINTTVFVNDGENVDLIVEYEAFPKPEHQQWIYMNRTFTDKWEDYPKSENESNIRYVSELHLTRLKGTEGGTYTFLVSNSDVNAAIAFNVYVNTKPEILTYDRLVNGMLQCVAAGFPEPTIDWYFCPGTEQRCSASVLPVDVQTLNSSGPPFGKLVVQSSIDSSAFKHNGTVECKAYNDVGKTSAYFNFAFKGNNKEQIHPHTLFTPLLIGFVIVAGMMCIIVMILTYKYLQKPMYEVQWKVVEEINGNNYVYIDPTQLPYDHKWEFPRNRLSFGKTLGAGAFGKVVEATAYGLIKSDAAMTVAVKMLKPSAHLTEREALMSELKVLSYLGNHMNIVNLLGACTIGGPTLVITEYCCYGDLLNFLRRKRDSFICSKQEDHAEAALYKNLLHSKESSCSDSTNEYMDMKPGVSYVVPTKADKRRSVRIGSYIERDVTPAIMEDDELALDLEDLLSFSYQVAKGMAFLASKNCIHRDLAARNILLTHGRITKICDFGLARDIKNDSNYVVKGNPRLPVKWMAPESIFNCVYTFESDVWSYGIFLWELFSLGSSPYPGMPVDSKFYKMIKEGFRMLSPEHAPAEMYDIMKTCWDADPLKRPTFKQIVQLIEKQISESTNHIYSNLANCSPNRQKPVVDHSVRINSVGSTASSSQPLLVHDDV

KIT N822K = KIT N822K (Homo sapiens, UniProt P10721, N822K)
KIT N822K, sequence (P10721 whole entry N822K): as the sequence (P10721 whole entry A829P) above, with N822K, P829A counted along it

MAP2K5 (MEK5) = MAP2K5 (MEK5) (Homo sapiens, UniProt Q13163)
MAP3K11 (MLK3) = MAP3K11 (MLK3) (Homo sapiens, UniProt Q16584)
MAP4K3 (GLK) = MAP4K3 (GLK) (Homo sapiens, UniProt Q8IVH8)
MYO3B (MYO3 beta) = MYO3B (MYO3 beta) (Homo sapiens, UniProt Q8WXR4)
PRKACG (PRKAC gamma) = PRKACG (PRKAC gamma) (Homo sapiens, UniProt P22612)
PRKACG (PRKAC gamma), sequence (P22612 whole entry): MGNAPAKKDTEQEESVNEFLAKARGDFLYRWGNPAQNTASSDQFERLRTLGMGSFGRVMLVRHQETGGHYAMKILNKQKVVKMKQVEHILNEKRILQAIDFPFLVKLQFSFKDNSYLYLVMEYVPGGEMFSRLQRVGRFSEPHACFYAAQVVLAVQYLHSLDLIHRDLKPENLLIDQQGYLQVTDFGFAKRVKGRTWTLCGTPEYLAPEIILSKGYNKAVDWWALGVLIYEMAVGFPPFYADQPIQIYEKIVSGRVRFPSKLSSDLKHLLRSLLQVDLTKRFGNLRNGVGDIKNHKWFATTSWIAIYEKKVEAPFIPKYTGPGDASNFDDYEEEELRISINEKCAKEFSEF

RAF1 (cRAF) Y340D Y341D = RAF1 (cRAF) Y340D Y341D (Homo sapiens, UniProt P04049, Y340D/Y341D)
RET V804M = RET V804M (Homo sapiens, UniProt P07949, V804M)
SIK3 = SIK3 (Homo sapiens, UniProt Q9Y2K2)
STK17B (DRAK2) = STK17B (DRAK2) (Homo sapiens, UniProt O94768)
TEK (TIE2) Y1108F = TEK (TIE2) Y1108F (Homo sapiens, UniProt Q02763, Y1108F)
TESK1 = TESK1 (Homo sapiens, UniProt Q15569)
ULK1 = ULK1 (Homo sapiens, UniProt O75385)

ACVR2B, sequence (Q13705 whole entry): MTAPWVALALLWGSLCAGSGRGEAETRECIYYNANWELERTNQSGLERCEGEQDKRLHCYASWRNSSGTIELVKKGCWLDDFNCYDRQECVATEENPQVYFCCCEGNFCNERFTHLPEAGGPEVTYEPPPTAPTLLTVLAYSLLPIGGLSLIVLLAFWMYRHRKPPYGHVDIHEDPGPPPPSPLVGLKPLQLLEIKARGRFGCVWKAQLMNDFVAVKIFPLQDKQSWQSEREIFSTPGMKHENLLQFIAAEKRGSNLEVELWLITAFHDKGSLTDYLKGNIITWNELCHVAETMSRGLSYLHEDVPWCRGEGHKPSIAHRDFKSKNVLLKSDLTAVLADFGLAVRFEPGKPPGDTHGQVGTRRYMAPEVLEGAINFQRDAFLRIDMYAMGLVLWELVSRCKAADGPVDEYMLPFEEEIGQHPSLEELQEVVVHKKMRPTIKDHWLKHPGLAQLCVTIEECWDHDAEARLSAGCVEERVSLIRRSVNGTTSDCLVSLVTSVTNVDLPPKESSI
AAK1, sequence (Q2M2I8 whole entry): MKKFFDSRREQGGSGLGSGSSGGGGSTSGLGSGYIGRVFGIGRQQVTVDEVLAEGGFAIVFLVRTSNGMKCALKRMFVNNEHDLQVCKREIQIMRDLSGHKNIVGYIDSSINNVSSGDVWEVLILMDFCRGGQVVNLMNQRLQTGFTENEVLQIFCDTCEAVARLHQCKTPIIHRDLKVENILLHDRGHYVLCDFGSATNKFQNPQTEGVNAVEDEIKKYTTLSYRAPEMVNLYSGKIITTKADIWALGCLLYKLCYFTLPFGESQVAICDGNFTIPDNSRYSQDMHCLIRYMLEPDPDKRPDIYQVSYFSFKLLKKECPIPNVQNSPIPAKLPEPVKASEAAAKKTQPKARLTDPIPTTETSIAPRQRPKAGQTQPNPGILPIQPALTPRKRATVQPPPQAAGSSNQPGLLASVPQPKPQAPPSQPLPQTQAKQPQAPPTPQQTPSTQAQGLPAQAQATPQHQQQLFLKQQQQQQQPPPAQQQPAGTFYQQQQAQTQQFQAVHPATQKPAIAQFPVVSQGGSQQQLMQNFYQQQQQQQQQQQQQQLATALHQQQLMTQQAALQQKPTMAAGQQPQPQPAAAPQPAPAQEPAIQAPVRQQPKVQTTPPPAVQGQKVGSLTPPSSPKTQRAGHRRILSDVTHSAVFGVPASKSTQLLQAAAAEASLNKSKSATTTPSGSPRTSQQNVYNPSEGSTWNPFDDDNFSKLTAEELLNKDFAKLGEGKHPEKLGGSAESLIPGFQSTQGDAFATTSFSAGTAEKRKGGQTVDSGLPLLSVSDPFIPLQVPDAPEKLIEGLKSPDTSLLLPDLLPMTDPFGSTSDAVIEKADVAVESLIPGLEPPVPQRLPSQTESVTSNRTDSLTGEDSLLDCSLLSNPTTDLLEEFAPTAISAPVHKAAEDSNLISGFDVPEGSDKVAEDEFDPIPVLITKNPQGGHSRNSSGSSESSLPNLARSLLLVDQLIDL

COc1ccc2nc3cc(Cl)ccc3c(Nc3cc(CN4CCCC4)c(O)c(CN4CCCC4)c3)c2n1 [Pyronaridine, 4-[(7-Chloro-2-methoxybenzo[b][1,5]naphthyridin-10-yl)amino]-2,6-bis(1-pyrrolidinylmethyl)phenol phosphate (1:4)]
inhibition at 1 µM (AAK1): 0%
inhibition at 1 µM (ABL1 H396P): 7%
inhibition at 1 µM (ABL1 M351T): 8%
inhibition at 1 µM (ACVR1 (ALK2)): 0%
inhibition at 1 µM (ACVR2B): 8%
inhibition at 1 µM (ALK F1174L): 8%
inhibition at 1 µM (ALK L1196M): -3%
inhibition at 1 µM (ALK R1275Q): 6%
inhibition at 1 µM (AMPK (A1/B1/G2)): -7%
inhibition at 1 µM (ANKK1): -2%
inhibition at 1 µM (CDK2/cyclin A1): 5%
inhibition at 1 µM (CDK5 (Inactive)): -1%
inhibition at 1 µM (DYRK2): -7%
inhibition at 1 µM (GAK): 28%
inhibition at 1 µM (KIT A829P): -9%
inhibition at 1 µM (KIT N822K): 14%
inhibition at 1 µM (MAP2K5 (MEK5)): 1%
inhibition at 1 µM (MAP3K11 (MLK3)): 2%
inhibition at 1 µM (MAP4K3 (GLK)): 1%
inhibition at 1 µM (MYO3B (MYO3 beta)): 5%
inhibition at 1 µM (PRKACG (PRKAC gamma)): 2%
inhibition at 1 µM (RAF1 (cRAF) Y340D Y341D): -5%
inhibition at 1 µM (RET V804M): -1%
inhibition at 1 µM (SIK3): -2%
inhibition at 1 µM (STK17B (DRAK2)): -4%
inhibition at 1 µM (TEK (TIE2) Y1108F): -2%
inhibition at 1 µM (TESK1): -2%
inhibition at 1 µM (ULK1): -4%
